According to patent US20150164762A1, “USE OF ETHANOLAMINE PHOSPHATE” (priority 2012, published 2015):

Test system: BEAS-2B
Test: Comprehensive gene expression analysis with Whole Human Genome DNA microarray after EP treatment
Assay type: cell-based
Method: Cells of the established normal human airway epithelial cell line BEAS-2B were used in the experiment. These cells were expansively cultured in 10% FBS RPMI-1640, and seeded at a density of 1×10^5/cm^2 on a 24-well plate. After 24 hours 0.1% FBS RPMI-1640 was substituted, and EP was administered to a final concentration of 0 or 1 mM (n=4). After 24 hours, the cells were used as the DNA microarray samples. RNA was extracted using a QIAGEN RNeasy Mini Kit. The DNA microarray test was performed using a Whole Human Genome DNA microarray 4×44K (Agilent), and the necessary labeling reagents and the like for the DNA microarray test were all from Agilent. The DNA microarray test data were analyzed statistically with GeneSpring (Agilent) dedicated analysis software, and gene function analysis (Gene Ontology (GO) analysis) was performed based on differential expression. The purpose of the GO analysis is to determine stochastically the degree to which gene sets with statistically significant differential expression correspond to known functional classification gene sets. […] The p-value is calculated according to the following formula.

[1] = probe A_23_P149529, 1 mM EP, 24 h
[2] = probe A_23_P151294, NM_000619, EP vs control
[3] = probe A_23_P151294, 1 mM EP, 24 h
[4] = probe A_23_P151649, NM_080649, EP vs control
[5] = probe A_23_P156310, 1 mM EP, 24 h
[6] = probe A_23_P159210, 1 mM EP, 24 h
[7] = probe A_23_P160025, 1 mM EP, 24 h
[8] = probe A_23_P163787, 1 mM EP, 24 h
[9] = probe A_23_P167096, 1 mM EP, 24 h
[10] = probe A_23_P167585, NM_005260, EP vs control
[11] = probe A_23_P168882, 1 mM EP, 24 h
[12] = probe A_23_P168909, 1 mM EP, 24 h
[13] = probe A_23_P169030, 1 mM EP, 24 h
[14] = probe A_23_P169738, 1 mM EP, 24 h
[15] = probe A_23_P201808, 1 mM EP, 24 h
[16] = probe A_23_P202978, 1 mM EP, 24 h
[17] = probe A_23_P206077, 1 mM EP, 24 h
[18] = probe A_23_P206396, 1 mM EP, 24 h
[19] = probe A_23_P206661, NM_000903, EP vs control
[20] = probe A_23_P207003, 1 mM EP, 24 h
[21] = probe A_23_P207999, 1 mM EP, 24 h
[22] = probe A_23_P208706, 1 mM EP, 24 h
[23] = probe A_23_P209625, NM_000104, EP vs control
[24] = probe A_23_P211762, 1 mM EP, 24 h
[25] = probe A_23_P211957, 1 mM EP, 24 h
[26] = probe A_23_P213706, NM_000589, EP vs control
[27] = probe A_23_P213745, NM_004887, EP vs control
[28] = probe A_23_P214950, 1 mM EP, 24 h
[29] = probe A_23_P217866, 1 mM EP, 24 h
[30] = probe A_23_P250554, 1 mM EP, 24 h
[31] = probe A_23_P252817, 1 mM EP, 24 h
[32] = probe A_23_P253932, 1 mM EP, 24 h
[33] = probe A_23_P255653, 1 mM EP, 24 h
[34] = probe A_23_P258194, 1 mM EP, 24 h
[35] = probe A_23_P258310, NM_144651, EP vs control
[36] = probe A_23_P259071, NM_001657, EP vs control
[37] = probe A_23_P303210, 1 mM EP, 24 h

Question: Which “TACSTD2 expression R*: Ratio to control” value [1] does the source give for `NCCOP(=O)(O)O` [EP, Ethanolamine phosphate] here?
Answer: Its value is 1.507 times.

Question: And the “TACSTD2 expression log2 [ratio]” value [1]?
Answer: Its value is 0.591.

Question: And the “IFNG gene expression, R* ratio to control” value [2]?
Answer: Its value is 0.611 times.

Question: What about the “IFNG gene expression, log2 [ratio]” value [2] of the same compound?
Answer: The value was −0.710.

Question: And the “IFNG expression R*: Ratio to control” value [3]?
Answer: The value was 0.611 times.

Question: And the “IFNG expression log2 [ratio]” value [3]?
Answer: Its value is −0.710.

Question: What about the “APEX1 gene expression, R* ratio to control” value [4] of the same compound?
Answer: The value was 1.455 times.

Question: And the “APEX1 gene expression, log2 [ratio]” value [4]?
Answer: The value was 0.541.

Question: And the “SKP2 expression R*: Ratio to control” value [5]?
Answer: Its value is 1.531 times.

Question: And the “SKP2 expression log2 [ratio]” value [5]?
Answer: The value was 0.615.

Question: And the “CDKN1A expression R*: Ratio to control” value [6]?
Answer: Its value is 0.439 times.

Question: And the “CDKN1A expression log2 [ratio]” value [6]?
Answer: The value was −1.187.

Question: And the “IFI16 expression R*: Ratio to control” value [7]?
Answer: The value was 0.629 times.

Question: What about the “IFI16 expression log2 [ratio]” value [7] of the same compound?
Answer: The value was −0.669.

Question: What about the “MMP2 expression R*: Ratio to control” value [8] of the same compound?
Answer: The value was 1.578 times.

Question: What about the “MMP2 expression log2 [ratio]” value [8] of the same compound?
Answer: Its value is 0.658.

Question: And the “VEGFC expression R*: Ratio to control” value [9]?
Answer: Its value is 1.637 times.

Question: And the “VEGFC expression log2 [ratio]” value [9]?
Answer: Its value is 0.711.

Question: What about the “GDF9 gene expression, R* ratio to control” value [10] of the same compound?
Answer: Its value is 0.357 times.

Question: What about the GDF9 gene expression, log2 [ratio] [10] of the same compound?
Answer: The GDF9 gene expression, log2 [ratio] was -1.49.

Question: And the “TP53INP1 expression R*: Ratio to control” value [11]?
Answer: The value was 0.395 times.

Question: What about the “TP53INP1 expression log2 [ratio]” value [11] of the same compound?
Answer: Its value is −1.339.

Question: And the “ZFPM2 expression R*: Ratio to control” value [12]?
Answer: Its value is 1.678 times.

Question: What about the “ZFPM2 expression log2 [ratio]” value [12] of the same compound?
Answer: The value was 0.746.

Question: What about the “TNFRSF10B expression R*: Ratio to control” value [13] of the same compound?
Answer: Its value is 0.636 times.

Question: And the “TNFRSF10B expression log2 [ratio]” value [13]?
Answer: Its value is −0.653.

Question: What about the “SOX7 expression R: Ratio to control” value [14] of the same compound?
Answer: Its value is 0.362 times.

Question: And the “SOX7 expression log2 [ratio]” value [14]?
Answer: Its value is −1.464.

Question: And the “PPAP2B expression R*: Ratio to control” value [15]?
Answer: The value was 1.919 times.

Question: And the “PPAP2B expression log2 [ratio]” value [15]?
Answer: Its value is 0.941.

Question: And the “CASP1 expression R*: Ratio to control” value [16]?
Answer: The value was 0.641 times.

Question: What about the “CASP1 expression log2 [ratio]” value [16] of the same compound?
Answer: The value was −0.642.

Question: What about the “AEN expression R*: Ratio to control” value [17] of the same compound?
Answer: The value was 0.420 times.

Question: And the “AEN expression log2 [ratio]” value [17]?
Answer: Its value is −1.253.

Question: And the “CKLF expression R*: Ratio to control” value [18]?
Answer: Its value is 1.601 times.

Question: And the “CKLF expression log2 [ratio]” value [18]?
Answer: Its value is 0.679.

Question: And the “NQO1 gene expression, R* ratio to control” value [19]?
Answer: Its value is 1.480 times.

Question: What about the “NQO1 gene expression, log2 [ratio]” value [19] of the same compound?
Answer: The value was 0.566.

Question: And the “SEPT4 expression R*: Ratio to control” value [20]?
Answer: The value was 0.503 times.

Question: What about the “SEPT4 expression log2 [ratio]” value [20] of the same compound?
Answer: Its value is −0.990.

Question: What about the “PMAIP1 expression R: Ratio to control” value [21] of the same compound?
Answer: The value was 0.344 times.

Question: What about the “PMAIP1 expression log2 [ratio]” value [21] of the same compound?
Answer: The value was −1.540.

Question: What about the “BAX expression R*: Ratio to control” value [22] of the same compound?
Answer: Its value is 0.453 times.

Question: What about the “BAX expression log2 [ratio]” value [22] of the same compound?
Answer: The value was −1.143.

Question: What about the “CYP1B1 gene expression, R* ratio to control” value [23] of the same compound?
Answer: Its value is 1.584 times.

Question: And the “CYP1B1 gene expression, log2 [ratio]” value [23]?
Answer: The value was 0.663.

Question: And the “COL8A1 expression R*: Ratio to control” value [24]?
Answer: Its value is 1.643 times.

Question: And the “COL8A1 expression log2 [ratio]” value [24]?
Answer: The value was 0.716.

Question: What about the “TGFBR2 expression R*: Ratio to control” value [25] of the same compound?
Answer: The value was 1.634 times.

Question: And the “TGFBR2 expression log2 [ratio]” value [25]?
Answer: Its value is 0.708.

Question: What about the “IL4 gene expression, R* ratio to control” value [26] of the same compound?
Answer: Its value is 0.420 times.

Question: What about the “IL4 gene expression, log2 [ratio]” value [26] of the same compound?
Answer: The value was −1.251.

Question: What about the “CXCL14 gene expression, R* ratio to control” value [27] of the same compound?
Answer: The value was 0.364 times.

Question: What about the “CXCL14 gene expression, log2 [ratio]” value [27] of the same compound?
Answer: Its value is −1.456.

Question: What about the “PERP expression R: Ratio to control” value [28] of the same compound?
Answer: The value was 0.521 times.

Question: And the “PERP expression log2 [ratio]” value [28]?
Answer: The value was −0.941.

Question: And the “1FI16 expression R*: Ratio to control” value [29]?
Answer: Its value is 0.585 times.

Question: And the “1FI16 expression log2 [ratio]” value [29]?
Answer: The value was −0.773.

Question: What about the “AGGF1 expression R*: Ratio to control” value [30] of the same compound?
Answer: Its value is 1.523 times.

Question: And the “AGGF1 expression log2 [ratio]” value [30]?
Answer: The value was 0.607.

Question: And the “SST expression R: Ratio to control” value [31]?
Answer: Its value is 0.666 times.

Question: What about the “SST expression log2 [ratio]” value [31] of the same compound?
Answer: Its value is −0.587.

Question: And the “FAIM expression R*: Ratio to control” value [32]?
Answer: Its value is 1.670 times.

Question: What about the “FAIM expression log2 [ratio]” value [32] of the same compound?
Answer: The value was 0.740.

Question: And the “TNFRSF10A expression R*: Ratio to control” value [33]?
Answer: The value was 0.402 times.

Question: And the “TNFRSF10A expression log2 [ratio]” value [33]?
Answer: Its value is −1.314.

Question: And the “A1FM3 expression R*: Ratio to control” value [34]?
Answer: Its value is 0.580 times.

Question: And the “A1FM3 expression log2 [ratio]” value [34]?
Answer: The value was −0.761.

Question: What about the “PXDNL gene expression, R* ratio to control” value [35] of the same compound?
Answer: The value was 2.426 times.

Question: What about the “PXDNL gene expression, log2 [ratio]” value [35] of the same compound?
Answer: The value was 1.278.

Question: And the “AREG gene expression, R* ratio to control” value [36]?
Answer: Its value is 0.128 times.

Question: And the “AREG gene expression, log2 [ratio]” value [36]?
Answer: Its value is −2.969.

Question: And the “IKBIP expression R*: Ratio to control” value [37]?
Answer: The value was 0.468 times.

Question: And the “IKBIP expression log2 [ratio]” value [37]?
Answer: Its value is −1.095.
